Earlier results in US20260007780A1, “LIQUID VEHICLE FORMULATION FOR ENTEROGRAPHY EXAMINATION” (priority 2008, published 2026).

solubility in water: practically insoluble in water
Structure (SMILES): CC(=O)Nc1c(I)c(NC(C)=O)c(I)c(C(=O)O)c1I [Diatrizoic acid, diatrizoic acid]
